According to patent US20090239846A1, “Novel Compounds” (Glaxo Group Limited, priority 2005, published 2009):
Entries after “also recorded” stand apart in the source; their conditions may differ. Structures can show the parent of a compound that is named as a salt.

system: influx of neutrophils to the lung in LPS-challenged rats; test: Rat LPS neutrophilia model; format: in vivo; conditions: LPS aerosol, lavage 4 hours later, in at least one of the range of conditions tested, significance p<0.05
Method: The effect of compounds on the influx of neutrophils to the lung in LPS-challenged rats is evaluated as follows. The test compound is suspended in one of the following solutions: 0.5% tween 80/PBS, 0.5% tween 80/saline, 10% EtOH/saline (with pH adjusted to 2.0, or 8.0 with HCl, or unadjusted), Saline (pH 2.0, 6.5 or 8.0, 0.5% Tragacanth, 1% DMSO/20% Encapsin/Saline, or acidified 5% Tragacanth. The suspension process may be aided by the use of a glass homogenizer. For intratracheal administration, the animals are anesthetized with inhaled isoflurane and placed in a supine position, the trachea is intubated with a steel gavage needle (1.5 inch, 22 gauge, small ball) or a Penn-Century Microsprayer Aerosolizer (model IA-LB) and 200 ul of dosing solution is delivered. The animals are visually monitored during the recovery process, which typically occurs within two minutes.
Rats treated with compound or vehicle (15 min-24 hours pretreatment) are exposed to an LPS aerosol (100 ug/ml) for 15 min. Four hours later the rats are euthanized with pentobarbital (100 mg/kg, i.p.) and the airways are lavaged with 5 washes of 5 ml of phosphate buffered saline. The harvested cells are stained (Diffquick) and counted to determine total and differential cell data. In a typical study, macrophages represent 40-70% of the total cells, and polymorphonuclear cells 30-60% of the total cells. Inhibition of neutrophil levels relative to no compound controls is calculated based on the differential counts.
The assay has varying conditions, such as concentration, pretreat time, form of the compound (crystalline, amorphous, salts, micronised), and a wet or dry application of the compound.
The data is obtained as % inhibition using a particular concentration and pretreat time.

| Structure (SMILES) | inhibition of neutrophilia |
| --- | --- |
| Cc1c(F)cc(C(=O)Nc2ccccc2)cc1-c1nc(NCCN(C)C)nc2c1CNC(=O)N2c1c(F)cccc1F [Example 112, 3-(8-(2,6-difluorophenyl)-2-{[2-(dimethylamino)ethyl]amino}-7-oxo-5,6,7,8-tetrahydropyrimido[4,5-d]pyrimidin-4-yl)-5-fluoro-4-methyl-N-phenylbenzamide] | statistically significant inhibition of neutrophilia |
| Cc1ccc(C(=O)Nc2ccc(F)cc2)cc1-c1nc(NCCCN(C)C)nc2c1CNC(=O)N2c1c(F)cccc1F [Example 42, 3-(8-(2,6-difluorophenyl)-2-{[3-(dimethylamino)propyl]amino}-7-oxo-5,6,7,8-tetrahydropyrimido[4,5-d]pyrimidin-4-yl)-N-(4-fluorophenyl)-4-methylbenzamide] | statistically significant inhibition of neutrophilia |
| Cc1ccc(C(=O)NC(C)C)cc1-c1nc(N2CCC(N3CCCCC3)CC2)nc2c1CNC(=O)N2c1c(F)cccc1F [Example 57, 3-[2-(1,4′-bipiperidin-1′-yl)-8-(2,6-difluorophenyl)-7-oxo-5,6,7,8-tetrahydropyrimido[4,5-d]pyrimidin-4-yl]-4-methyl-N-(1-methylethyl)benzamide] | statistically nonsignificant inhibition of neutrophilia |
| Cc1ccc(C(=O)NC(C)C)cc1-c1nc(N2CCC(N3CCC(C)CC3)CC2)nc2c1CNC(=O)N2c1c(F)cccc1F [Example 70, 3-[8-(2,6-difluorophenyl)-2-(4-methyl-1,4′-bipiperidin-1′-yl)-7-oxo-5,6,7,8-tetrahydropyrimido[4,5-d]pyrimidin-4-yl]-4-methyl-N-(1-methylethyl)benzamide] | statistically significant inhibition of neutrophilia |
| CCc1ccc(C(=O)Nc2nccs2)cc1-c1nc(NCCN(C)C)nc2c1CNC(=O)N2c1c(F)cccc1F [Example 144, 3-(8-(2,6-difluorophenyl)-2-{[2-(dimethylamino)ethyl]amino}-7-oxo-5,6,7,8-tetrahydropyrimido[4,5-d]pyrimidin-4-yl)-4-ethyl-N-1,3-thiazol-2-ylbenzamide trifluoroacetate] | statistically significant inhibition of neutrophilia |
| Cc1ccc(C(=O)Nc2nccs2)cc1-c1nc(NCCCN(C)C)nc2c1CNC(=O)N2c1c(F)cccc1F [Example 119, 3-(8-(2,6-difluorophenyl)-2-{[3-(dimethylamino)propyl]amino}-7-oxo-5,6,7,8-tetrahydropyrimido[4,5-d]pyrimidin-4-yl)-4-methyl-N-1,3-thiazol-2-ylbenzamide] | statistically significant inhibition of neutrophilia |
| Cc1ccc(C(=O)NC(C)C)cc1-c1nc(NC2CCN(Cc3ccccc3)CC2)nc2c1CNC(=O)N2c1c(F)cccc1F [Example 200, 3-(8-(2,6-difluorophenyl)-7-oxo-2-{[1-(phenylmethyl)-4-piperidinyl]amino}-5,6,718-tetrahydropyrimido[4,5-d]pyrimidin-4-yl)-4-methyl-N-(1-methylethyl)benzamide] | statistically significant inhibition of neutrophilia |
| Cc1ccc(C(=O)NC(C)C)cc1-c1nc(N2CCCN(C)CC2)nc2c1CNC(=O)N2c1c(F)cccc1F [Example 179, 3-[8-(2,6-difluorophenyl)-2-(4-methylhexahydro-1H-1,4-diazepin-1-yl)-7-oxo-5,6,7,8-tetrahydropyrimido[4,5-d]pyrimidin-4-yl]-4-methyl-N-(1-methylethyl)benzamide trifluoroacetate] | statistically nonsignificant inhibition of neutrophilia |
| Cc1ccc(C(=O)Nc2ccc(F)cc2)cc1-c1nc(N(C)CCCN(C)C)nc2c1CNC(=O)N2c1c(F)cccc1F [Example 9] | statistically nonsignificant inhibition of neutrophilia |
| CSc1ccc(NC(=O)c2ccc(C)c(-c3nc(NCCN(C)C)nc4c3CNC(=O)N4c3c(F)cccc3F)c2)cc1 [Example 127, 3-(8-(2,6-difluorophenyl)-2-{[2-(dimethylamino)ethyl]amino}-7-oxo-5,6,7,8-tetrahydropyrimido[4,5-d]pyrimidin-4-yl)-4-methyl-N-[4-(methylthio)-phenyl]benzamide] | statistically significant inhibition of neutrophilia |
| Cc1ccc(C(=O)NC(C)C)cc1-c1nc(NCCN(C)C)nc2c1CNC(=O)N2c1c(F)cccc1F [Example 37, 3-(8-(2,6-difluorophenyl)-2-{[2-(dimethylamino)ethyl]amino}-7-oxo-5,6,7,8-tetrahydropyrimido[4,5-d]pyrimidin-4-yl)-4-methyl-N-(1-methylethyl)benzamide] | statistically nonsignificant inhibition of neutrophilia |
| Cc1ccc(C(=O)Nc2ccc(F)cc2)cc1-c1nc(NC2CCN(C)CC2)nc2c1CNC(=O)N2c1c(F)cccc1F [Example 39, 3-{8-(2,6-difluorophenyl)-2-[(1-methyl-4-piperidinyl)amino]-7-oxo-5,6,7,8-tetrahydropyrimido[4,5-d]pyrimidin-4-yl}-N-(4-fluorophenyl)-4-methylbenzamide] | statistically nonsignificant inhibition of neutrophilia |
| Cc1ccc(C(=O)Nc2ccccc2)cc1-c1nc(NCCN(C)C)nc2c1CNC(=O)N2c1c(F)cccc1F [Example 137, 3-(8-(2,6-difluorophenyl)-2-{[2-(dimethylamino)ethyl]amino}-7-oxo-5,6,7,8-tetrahydropyrimido[4,5-d]pyrimidin-4-yl)-4-methyl-N-phenylbenzamide] | statistically significant inhibition of neutrophilia |
| Cc1ccc(C(=O)Nc2nccs2)cc1-c1nc(NC[C@H](C)O)nc2c1CNC(=O)N2c1c(F)cccc1F [Example 134, 3-(8-(2,6-difluorophenyl)-2-{[(2S)-2-hydroxypropyl]amino}-7-oxo-5,6,7,8-tetrahydropyrimido[4,5-d]pyrimidin-4-yl)-4-methyl-N-1,3-thiazol-2-ylbenzamide] | statistically nonsignificant inhibition of neutrophilia |
| COc1ccc(NC(=O)c2ccc(C)c(-c3nc(NCCN(C)C)nc4c3CNC(=O)N4c3c(F)cccc3F)c2)cn1 [Example 140, 3-(8-(2,6-difluorophenyl)-2-{[2-(dimethylamino)ethyl]amino}-7-oxo-5,6,7,8-tetrahydropyrimido[4,5-d]pyrimidin-4-yl)-4-methyl-N-[6-(methyloxy)-3-pyridinyl]benzamide] | statistically significant inhibition of neutrophilia |
| Cc1ccc(C(=O)NC(C)C)cc1-c1nc(NCCCN(C)C)nc2c1CNC(=O)N2c1c(F)cccc1F [Example 40, 3-(8-(2,6-difluorophenyl)-2-{[3-(dimethylamino)propyl]amino}-7-oxo-5,6,7,8-tetrahydropyrimido[4,5-d]pyrimidin-4-yl)-4-methyl-N-(1-methylethyl)benzamide] | statistically significant inhibition of neutrophilia |
| CN(C)CCNc1nc(-c2cccc(C(=O)Nc3ccc(F)cc3)c2)c2c(n1)N(c1c(F)cccc1F)C(=O)NC2 [Example 93] | statistically nonsignificant inhibition of neutrophilia |
| CN(C)CCNc1nc(-c2cccc(C(=O)Nc3nccs3)c2)c2c(n1)N(c1c(F)cccc1F)C(=O)NC2 [Example 92, 3-(8-(2,6-difluorophenyl)-2-{[2-(dimethylamino)ethyl]amino}-7-oxo-5,6,7,8-tetrahydropyrimido[4,5-d]pyrimidin-4-yl)-N-1,3-thiazol-2-ylbenzamide] | statistically significant inhibition of neutrophilia |
| Cc1ccc(C(=O)Nc2ccc(F)c(F)c2)cc1-c1nc(NCCN(C)C)nc2c1CNC(=O)N2c1c(F)cccc1F [Example 138, N-(3,4-difluorophenyl)-3-(8-(2,6-difluorophenyl)-2-{[2-(dimethylamino)-ethyl]amino}-7-oxo-5,6,7,8-tetrahydropyrimido[4,5-d]pyrimidin-4-yl)-4-methylbenzamide] | statistically significant inhibition of neutrophilia |
| Cc1ccc(C(=O)NC(C)C)cc1-c1nc(N2CCC(N3CCCC3)CC2)nc2c1CNC(=O)N2c1c(F)cccc1F [Example 60, 3-{8-(2,6-difluorophenyl)-7-oxo-2-[4-(1-pyrrolidinyl)-1-piperidinyl]-5,6,7,8-tetrahydropyrimido[4,5-d]pyrimidin-4-yl}-4-methyl-N-(1-methylethyl)benzamide] | statistically nonsignificant inhibition of neutrophilia; also recorded: inactive |
| CCN(CC)CCCNc1nc(-c2cc(C(=O)Nc3nccs3)ccc2C)c2c(n1)N(c1c(F)cccc1F)C(=O)NC2 [Example 120, 3-[2-{[3-(diethylamino)propyl]amino}-8-(2,6-difluorophenyl)-7-oxo-5,6,7,8-tetrahydropyrimido[4,5-d]pyrimidin-4-yl]-4-methyl-N-1,3-thiazol-2-ylbenzamide] | statistically significant inhibition of neutrophilia |
